Results taken from US20240248078A1, “Compositions For and Methods of Evaluating Gap Junction Formation and Function” (Duke University, priority 2021, published 2024).

Experiments:
Format in all cases: cell-based, human
HEK 293FT cells = assay: Flow enabled tracking of connexosomes in HEK 293FT cells (FETCH); details: for homotypic FETCH score (docking): homotypic pairing of fluorescent C-terminal fusion constructs, Q2/(Q1+Q2+Q3); for heterotypic FETCH score when paired with Cx43: co-plated with cells expressing Cx43
Protocol: FETCH analysis is fundamentally a two-component system. To complete FETCH analysis, replica multi-well plates were transfected with either of the two components being evaluated. The media of transfected wells was changed 16-18 hrs post-transfection and cells were trypsinized and experimental counterparts were combined at ˜20 hrs post-transfection. The entirety of combined samples were then plated onto new, 10 μg/mL Fibronectin coated wells of the same size, resulting in hyperdensity and over confluency. Following co-plating, samples were incubated for ˜20 hr-24 hrs, at which point samples were trypsinized, resuspended in phosphate buffered saline with 10 U/mL DNAse and fixed with paraformaldehyde (f/c of 1.5%). Co-plated samples in 96 well plates were resuspended to a final volume of ˜150 μL, samples from 24-well plates were resuspended to a final volume of ˜600 μL.
Flow cytometry data was collected on either a BD FACSCanto II (2-color experiments and high-throughput 96-well plates; 488 nm and 633 nm lasers), which utilizes the BD FACSDiVa software. Samples were analyzed in two selection gates prior to their fluorescence evaluation. First, presumable HEK cells were identified by evaluating sample forward vs side scatter area. Next, single cells were selected by evaluating cells that maintained a linear correlation of forward scatter height to forward scatter area. Finally, the fluorescence profiles of each sample were generated.
Each FETCH experiment produces “*.fcs” files that contain all the channel data for fluorescence in the sample. The automated pipeline loads these files, extracts FSC-A, SSC-A, and FSC-H. Depending on the machine used, green channel was loaded as 1-A or as FITC-A. For the red channel, both APC-A (RFP670) with PE-A (mApple) can be used or 5-A(RFP670) can be used. Next, the code produces two matrices containing SSC-A with FSC-A, and FSC-A with FSC-H, respectively.
The first gate is drawn on the FSC-A vs SSC-A axes to exclude cellular debris which clusters in the lower left corner and the cells that are saturating the laser (at the max of both axes). On an FSC-A vs SSC-A plot, the cellular debris usually is smoothly transitioning into the population of intact cells, therefore a Gaussian kernel density estimator with the estimator bandwidth selection defined by the Scott's Rule is used to draw contours around the data in SSC-A vs FSC-A matrix. Next, a set of heuristics was used to determine which of the contour lines should be used to define the first gate. Specifically, cellular debris usually clusters below 25000 on both axes, so any contour that includes values at or below is excluded. Similarly, any contour within a 1000 of the maximum value of each axis is also excluded. Of the remaining contours, the largest one is chosen, and an oval equation is fitted to the points defining that contour to attenuate occasional protrusions of the contour that tap into cellular debris population in rare cases. The fitted oval becomes the first gate.
For all the elements inside of the first gate, a second gate was drawn in the axis of FSC-A and FSC-H to exclude non-single cells. For the second gate, a line was fit to all the points. Next, for each point, a norm to the fit line was found and a standard deviation of all such norms was found. Using this standard deviation, a second gate 4 standard deviations away from the fitted line was defined on both sides and excluded all the points outside of this gate.
Upon applying the first two gates, the data was finally plotted with the red fluorophore on the y axis and the green fluorophore on the x axis. If a sample contained more than two fluorophores, then the last gate was drawn for each possible combination. Since some readings are below zero due to fluorescence compensation, all the data points were shifted by the smallest value along both axes and then a natural log of fluorescence levels was taken. […]

293 cells = assay: FETCH in 293 cell line; details: compared with HEK 293FT
From the text: (§1) For FETCH to be successful, cells must overexpress Cx-FP constructs to a sufficient degree to promote observable fluorescence exchange.

HeLa cells = assay: FETCH in HeLa cell line; details: compared with HEK 293FT
From the text: as §1

Row | Substance | homotypic FETCH score (docking) (HEK 293FT cells) | other results
1 | Cx31.9: human connexin 31.9 (GJD3), C-terminal fluorescent fusion protein | failed to generate a significant homotypic FETCH score | 
2 | Cx59: human connexin 59 (GJA9), C-terminal fluorescent fusion protein | failed to generate a significant homotypic FETCH score | 
3 | Cx62: human connexin 62 (GJA10), C-terminal fluorescent fusion protein | failed to generate a significant homotypic FETCH score | 
4 | S182A: random alanine scanning mutation of the Cx43 extracellular loops | retained their ability to homotypically dock | 
5 | Cx50: human connexin 50 (GJA8), C-terminal fluorescent fusion protein | failed to generate a significant homotypic FETCH score | 
6 | D190A: random alanine scanning mutation of the Cx43 extracellular loops | retained their ability to homotypically dock | 
7 | Cx43: human connexin 43 (GJA1), expressed as C-terminal fluorescent fusion protein | significantly positive | FETCH score (293 cells): substantially lower; FETCH score (HeLa cells): substantially lower
8 | Cx43-ELs-Cx26: chimeric construct of the intracellular and transmembrane regions of Cx43 and the ELs of Cx26 |  | FETCH docking when paired with Cx26 (HEK 293FT cells; co-plated with cells expressing Cx26): preferentially docked; heterotypic FETCH score when paired with Cx43 (HEK 293FT cells): not Cx43
9 | Cx31.3: human connexin 31.3, C-terminal fluorescent fusion protein | failed to generate a significant homotypic FETCH score | 
10 | Cx36: human connexin 36 (GJD2), C-terminal fluorescent fusion protein | significantly positive | heterotypic FETCH score when paired with Cx43 (HEK 293FT cells): failed to dock
11 | Cx32: human connexin 32 (GJB1), C-terminal fluorescent fusion protein | significantly positive | heterotypic FETCH score when paired with Cx43 (HEK 293FT cells): failed to dock
12 | Cx31.1: human connexin 31.1 (GJB5), C-terminal fluorescent fusion protein | failed to generate a significant homotypic FETCH score | 
13 | Cx46: human connexin 46 (GJA3), C-terminal fluorescent fusion protein | failed to generate a significant homotypic FETCH score | 
14 | Cx45: human connexin 45 (GJC1), C-terminal fluorescent fusion protein | significantly positive | heterotypic FETCH score when paired with Cx43 (HEK 293FT cells): positive
